Measured values as given in US6818407B2, “Anti-endotoxic antimicrobial cationic peptides and methods of use therfor” (priority 1998, dated 2004).
Ends that are not written are not given here.

Key:
[1] = tested on: Staphylococcus epidermidis (C621); assay type: cell-based; conditions: Mueller Hinton Broth
Protocol: (§1) The biological activity of the peptides can be determined by standard methods known to those of skill in the art, such as Aminimal inhibitory concentration (MIC)≅ assay described in the present examples, whereby the lowest concentration at which no change in OD is observed for a given period of time is recorded as MIC. Alternatively, Afractional inhibitory concentration (FIC)≅ is also useful for determination of synergy between the peptides of the invention, or the peptides in combination with known antibiotics. FICs are performed by checkerboard titrations of peptides in one dimension of a microtiter plate, and of antibiotics in the other dimension, for example. The FIC is calculated by looking at the impact of one antibiotic on the MIC of the other and vice versa. […] Preferably, an FIC of less than 0.5 is obtained for synergism. As used herein, FIC can be determined as follows: [formula]
(§2) These peptides varied in activity (Table 11), however, the C-terminally capped pleurocidin especially and its N-terminally capped lysine derivative had much better activities against a variety of bacteria including Vibrio anguillarum (Va), Aeromonas salmonicida (As), Staphylococcus epidermidis (C621), Salmonella typhimurium wild type (C587) and phoP phoQ mutant (C610), and Pseudomonas aeruginosa wild type (K799) and outer membrane barrier altered (Z61). The antimicrobial peptide CEME, a fusion peptide made from portions of an insect defensin ceropin A and the bee venom peptide melittin (Piers and Hancock, Mol. Microbiol., 12:951-8, 1994), as well as the known antibiotics polymyxin B and gentamicin were used as controls. Replacing the pleurocidin N-terminus with the dermaseptin N-terminus had no effect. Replacing pleurocidin N-terminus with the ceratoxin N-terminus reduced activity. […] Amidating the C-terminus improved antimicrobial activity. Replacing the pleurocidin C-terminus with the misgurin C-terminus had no effect.
(§3) Bacteria included Vibrio anguillarum (Va), Aeromonas salmonicida (As), Staphylococcus epidermidis (C621), Salmonella typhimurium wild type (C587) and phoP phoQ mutant (C6 10), and Pseudomonas aeruginosa wild type (K799) and outer membrane barrier altered (Z61).

[2] = tested on: Pseudomonas aeruginosa wild type (K799); assay type: cell-based; conditions: Mueller Hinton Broth
Protocol: as §1, §2, §3

Vibrio anguillarum (Va) = assay type: cell-based; conditions: Mueller Hinton Broth
Protocol: as §1, §2, §3

[3] = tested on: Salmonella typhimurium phoP phoQ mutant (C610); assay type: cell-based; conditions: Mueller Hinton Broth
Protocol: as §1, §2, §3

[4] = tested on: Aeromonas salmonicida (As); assay type: cell-based; conditions: Mueller Hinton Broth
Protocol: as §1, §2, §3

[5] = tested on: Salmonella typhimurium wild type (C587); assay type: cell-based; conditions: Mueller Hinton Broth
Protocol: as §1, §2, §3

[6] = tested on: Pseudomonas aeruginosa outer membrane barrier altered (Z61); assay type: cell-based; conditions: Mueller Hinton Broth
Protocol: as §1, §2, §3

[7] = tested on: mutant (Nal B, H744) of P. aeruginosa; assay: microbe, parasite or virus in culture; assay type: cell-based; conditions: for (B) MIC of Cipro when combined with peptide: ciprofloxacin with peptide at concentration (A); for (B) MIC of Cipro when combined with peptide / FIC index / (A) Peptide doses together with Cipro: Nal B, H744; for FIC index: peptide + ciprofloxacin; for MIC A MIC of Peptides: peptide alone, P. aeruginosa mutant Nal B, H744 (Table 5); for (A) Peptide doses together with Cipro: peptide concentration in combination with ciprofloxacin
Protocol: as §1
(§4) To test whether the peptides of the invention synergize with various antibiotics, the following method was employed. Fractional Inhibitory Concentration (FIC) was used to determine synergy of peptides combined with antibiotics (e.g., carbenicillin/ciprofloxacin) against Pseudomonas aeruginosa. The following methodology was followed:
(§5) (1) Determination of MIC of cationic peptides (MIC A):
(§6) 100 μl Mueller Hinton broth (MHB) was added per well
(§7) 12.5 μl of 10× test concentration peptide was added per well to get final peptide concentration of e.g., 128, 64, 32, . . . 0.025 μg/ml from row 1 to 11;
(§8) 10 μl of 10^−4 dilution of overnight bacterial culture was added per well.
(§9) (2) Determination of MIC of Carbenicillin/Ciprofloxacin (MIC B):
(§10) 100 μl MHB was added per well;
(§11) 100 μl of 2× test concentration of antibiotic was added in the first well of the row, and doubling dilutions performed across the plate from column 1 to 11;
(§12) (3) Determination of MIC of antibiotics (B) when combined with peptides at concentration A:
(§13) 100 μl Carbenicillin (512 μg/ml) or Ciprofloxacin (8 μg/ml) was added in each well of column 1; doubling dilutions were performed across the plate;
(§14) 100 μl of the peptide was added in all wells of row 1, mixed, and 100 μl withdrawn and added to row 2, etc., creating a checkerboard titration.
(§15) 10 μl of 10^−4 dilution of overnight culture was added per well;
(§16) plates were incubated at 37EC for 18-24 hours. Combination MIC values A and B were taken as the lowest concentration of drug that reduced bacterial growth by more than 50% in any given column.
(§17) (4) FIC index=FICA+FICB=(A)/MIC A+(B)/MIC B. An FIC index of approximately 0.5 or less indicates synergy; 1.0 reflects additivity; and >1.0 indicates antagonism.

[8] = tested on: P. aeruginosa efflux mutant (Nal B, H744); assay: microbe, parasite or virus in culture; assay type: cell-based; conditions: for (B) MIC of Nal when combined with peptide: nalidixic acid with peptide at concentration (A), unit from method; for (B) MIC of Nal when combined with peptide / FIC index / (A) Peptide doses together with Nal: efflux mutant Nal B, H744; for FIC index: peptide + nalidixic acid; for MIC A MIC of Peptides: peptide alone, P. aeruginosa efflux mutant Nal B, H744 (Table 6); for (A) Peptide doses together with Nal: peptide concentration in combination with nalidixic acid
Protocol: as §1, §4, §5, §6, §7, §8, §9, §10, §11, §12, §13, §14, §15, §16, §17

[9] = tested on: β-lactamase derepressed mutant (H547) of P. aeruginosa; assay: microbe, parasite or virus in culture; assay type: cell-based; conditions: P. aeruginosa H547; for (B) MIC of Carb when combined with peptide: Carbenicillin with peptide at concentration (A); for FIC index: peptide + Carbenicillin, about 0.5 or less synergy, 1.0 additivity, >1.0 antagonism; for MIC A MIC of Peptides: peptide alone; for (A) Peptide doses together with Carb: peptide concentration in combination with Carbenicillin
Protocol: as §1, §4, §5, §6, §7, §8, §9, §10, §11, §12, §13, §14, §15, §16, §17

E. coli [10] = assay: Synergy study (checkerboard titration) with hen white lysozyme; assay type: cell-based; conditions: for Lowest [CP] showing synergy: cationic peptide concentration, combined with lysozyme; for Lowest [Lyso] showing synergy: lysozyme concentration, combined with the peptide
Protocol: as §1

Salmonella typhi = assay: as above; assay type: cell-based
Protocol: as §1

P. aeruginosa (H103) = assay: as above; assay type: cell-based; conditions: for Lowest [CP] showing synergy: cationic peptide concentration, combined with lysozyme; for Lowest [Lyso] showing synergy: lysozyme concentration, combined with the peptide
Protocol: as §1

[11] = tested on: P. aeruginosa gyrase mutant (Nal A, H374); assay type: cell-based; conditions: for (B) MIC of Nal when combined with peptide: nalidixic acid with peptide at concentration (A), unit from method; for (B) MIC of Nal when combined with peptide / FIC index / (A) Peptide doses together with Nal: Nal A; for FIC index: peptide + nalidixic acid; for MIC A MIC of Peptides: peptide alone, P. aeruginosa gyrase mutant Nal A; for (A) Peptide doses together with Nal: peptide concentration in combination with nalidixic acid
Protocol: as §1, §4, §5, §6, §7, §8, §9, §10, §11, §12, §13, §14, §15, §16, §17

S. aureus K147 = assay: MIC, broth microdilution assay in polypropylene microtiter trays; assay type: cell-based; conditions: average of three separate experiments
Protocol: as §1
(§18) A method which employed polypropylene microtiter trays in a broth microdilution assay was developed.

E. coli [12] = assay: as above; assay type: cell-based; conditions: average of three separate experiments
Protocol: as §1, §18

S. aureus = assay: as above; assay type: cell-based; conditions: average of three separate experiments
Protocol: as §1, §18

P. aeruginosa = assay: as above; assay type: cell-based; conditions: average of three separate experiments
Protocol: as §1, §18

[13] = tested on: Pseudomonas aeruginosa strain M2; assay: Protection of neutropenic CD-1 mice challenged with Pseudomonas aeruginosa; assay type: in vivo; design: Survival post bacterial challenge, surviving mice: reference not given here; conditions: for Survival (%) post bacterial challenge: PBS 8
Protocol: CD-1 mice were induced to be neutropenic via 3 intraperitoneal injections of cyclophosphamide ([…]) every another day. Immediately after the third administration of cyclophosphamide, the mice were challenged by intraperitoneal injection of Pseudomonas aeruginosa strain M2 (200-300 organisms/mouse). Cationic peptides (200 µg per mouse=8 mg/kg) in 100 µl buffered citrate were injected intraperitoneally at 30 min (single dose) or 30 min and 16 hrs (double dose) post bacterial challenge, respectively. The data were the average values of 2 individual experiments. PBS was used as a control. […] In general single dose protection studies gave better protection than double dose experiments.

Substance | MIC C621 [1] [µg/mL] | MIC K799 [2] [µg/mL] | MIC Va (Vibrio anguillarum (Va)) [µg/mL] | MIC C610 [3] [µg/mL] | MIC As [4] [µg/mL] | MIC C587 [5] [µg/mL] | MIC Z61 [6] [µg/mL] | (B) MIC of Cipro when combined with peptide [7] | FIC index [7] | MIC A MIC of Peptides [7] [µg/mL] | (A) Peptide doses together with Cipro [7] [µg/mL] | (B) MIC of Nal when combined with peptide [8] [µg/mL] | FIC index [8] | MIC A MIC of Peptides [8] [µg/mL] | (A) Peptide doses together with Nal [8] [µg/mL] | (B) MIC of Carb when combined with peptide [9] [µg/mL] | FIC index [9] | MIC A MIC of Peptides [9] [µg/mL] | (A) Peptide doses together with Carb [9] [µg/mL] | FIC for combination of cationic peptide and lysozyme (E. coli [10]) | further results
KGWGSFFKKAAHVGKHVGKAALTHYL [Peptide P-1] | 64 | 32 | 16 | <0.5 | 2 | 16 | 8 |  |  |  |  |  |  |  |  |  |  |  |  |  | 
KGWGSFFKKAAHVGKHVGKAALTHYL-NH2 [Peptide P-1-CN] | 2 | 8 | 2 | <0.5 | 1 | 2 | 2 |  |  |  |  |  |  |  |  |  |  |  |  |  | 
KKWKKFIKKIGIGAVLTTPGAKK [CPα3] |  |  |  |  |  |  |  | .125 µg/mL | .75 | 4 | 1 | 400 | 0.50 | 4 | 1 | 32 | 0.75 | 16 | 4 | 0.31 | Lowest [CP] showing synergy (E. coli [10]): 0.65 µg/mL; Lowest [Lyso] showing synergy (E. coli [10]): 62.5 µg/mL; FIC for combination of cationic peptide and lysozyme (Salmonella typhi): Confluent; FIC for combination of cationic peptide and lysozyme (P. aeruginosa (H103)): 0.08; Lowest [CP] showing synergy (P. aeruginosa (H103)): 1.3 µg/mL; Lowest [Lyso] showing synergy (P. aeruginosa (H103)): 7.8 µg/mL; (B) MIC of Nal when combined with peptide [11]: 800 µg/mL; FIC index [11]: 0.50; MIC A MIC of Peptides [11]: 8 µg/mL; (A) Peptide doses together with Nal [11]: 1 µg/mL; MIC S. aureus K147 (S. aureus K147): >64 µg/mL; MIC E. coli (E. coli [12]): 4 µg/mL; MIC S. aureus (S. aureus): >64 µg/mL; MIC P. aeruginosa (P. aeruginosa): ≧64 μg/ml
KWKSFIKKLTSAAKKVTTAAKPLTK [CPα1] |  |  |  |  |  |  |  | .125 µg/mL | .63 | 8 | 1 | 400 | 0.38 | 8 | 1 | 32 | 0.75 | 16 | 4 | 0.31 | Lowest [CP] showing synergy (E. coli [10]): 0.65 µg/mL; Lowest [Lyso] showing synergy (E. coli [10]): 7.8 µg/mL; FIC for combination of cationic peptide and lysozyme (Salmonella typhi): 0.63; Lowest [CP] showing synergy (Salmonella typhi; cationic peptide concentration, combined with lysozyme): 41.7 µg/mL; Lowest [Lyso] showing synergy (Salmonella typhi; lysozyme concentration, combined with the peptide): 125 µg/mL; FIC for combination of cationic peptide and lysozyme (P. aeruginosa (H103)): 0.28; Lowest [CP] showing synergy (P. aeruginosa (H103)): 5.21 µg/mL; Lowest [Lyso] showing synergy (P. aeruginosa (H103)): 7.8 µg/mL; (B) MIC of Nal when combined with peptide [11]: 800 µg/mL; FIC index [11]: 0.38; MIC A MIC of Peptides [11]: 8 µg/mL; (A) Peptide doses together with Nal [11]: 1 µg/mL; MIC S. aureus K147 (S. aureus K147): >64 µg/mL; MIC E. coli (E. coli [12]): 1.5 µg/mL; MIC S. aureus (S. aureus): >64 µg/mL; MIC P. aeruginosa (P. aeruginosa): ≧64 μg/ml
KWKSFIKKLTSAAKKVVTTAKPLISS (H-KWKSFIKKLTSAAKKVVTTAKPLISS-OH) [CP26, reference compound] |  |  |  |  |  |  |  |  |  |  |  |  |  |  |  |  |  |  |  |  | Survival post bacterial challenge, surviving mice ([13]; single dose (200 μg per mouse i.p. at 30 min), 16 hr): 8; Survival post bacterial challenge, surviving mice ([13]; single dose, 24 hr): 8; Survival post bacterial challenge, surviving mice ([13]; single dose, 41 hr): 6; Survival post bacterial challenge, surviving mice ([13]; single dose, 48 hr): 4; Survival post bacterial challenge, surviving mice ([13]; single dose, 64 hr): 3; Survival (%) post bacterial challenge ([13]; single dose, 64 hr): 37%; Survival post bacterial challenge, surviving mice ([13]; single dose, 72 hr): 3; Survival (%) post bacterial challenge ([13]; single dose, 72 hr): 37%; Survival post bacterial challenge, surviving mice ([13]; single dose, 96 hr): 3; Survival (%) post bacterial challenge ([13]; single dose, 96 hr): 37%
RQRVEELSKFSKKGAAARRRK [Peptide M-0, reference compound] | >64 | >64 | >64 | >64 | >64 | >64 | >64 |  |  |  |  |  |  |  |  |  |  |  |  |  | 
